Assays:
[1] = system: intraocular hypertension of rabbits caused by α-chymotrypsin; assay: Effect on intraocular hypertension of rabbits caused by α-chymotrypsin (intraocular tension); type: in vivo, male white rabbits; design: Intraocular tension: unit not given here; settings: for Intraocular tension: 35 μl instilled, mean of five animals ± standard error; for effects of lowering intraocular tension (conclusion): ophthalmic solution containing 5-ISMN or 2-ISMN
Method: Models of intraocular hypertension were prepared by the use of male white rabbits of approximately 2.5 kg in body weight according to the method reported by Sears (cf. Sears, D. and Sears, M., Am. J. Ophthalmol., Vol. 77, No. 3, p. 378 to 383, 1974). A rabbit was anesthetized by intravenously injecting 20 mg/kg of pentobarbital sodium and 2% of lidocaine was instilled in the left eye of the animal to anesthetize locally. A volume of 0.5 ml physiological saline solution was injected into the anterior chamber of the left eye with a needle and subsequently 0.5 ml of α-chymotrypsin 300 NFU/ml was injected into the posterior chamber with another needle while holding the former needle as such. After removing the needle inserted into the posterior chamber, the needle inserted into the anterior chamber was removed. The rabbit experimentally suffering from intraocular hypertension thus prepared was allowed to stand for 25 to 30 days to thereby recover from postoperative keratitis or conjunctivitis and to hold a stable intraocular hypertension. Then it was subjected to the test.
Intraocular tension was determined with a Perkin's Hand Applanation Tonometer (a product of Clement Clark, London) under anesthesia with 2% halothane, having 2 l/min of oxygen, and local anesthesia with 0.4% of benoxil.
Intraocular tension was measured five times and the mean value was recorded.
5-ISMN and 2-ISMN were employed as the test compounds and dissolved in a physiological saline solution.
A volume of 35 μl of each solution was instilled in the left eye treated with α-chymotrypsin. Each solution was administered to five rabbits according to a crossover design.

ddy mice = assay: Acute toxicity (intravenous), mortality 24 hours after administration; type: in vivo; settings: for mortality: 24 hours
Method: 500 mg/kg and 1,000 mg/kg of each of isosorbide-5-mononitrate (5-ISMN) and isosorbide-2-mononitrate (2-ISMN) were intravenously injected to ddy mice of approximately 20 g in body weight to observe their toxicity. The mortality was determined 24 hours after the administration.

Solubility in water = type: physicochemical
[2] = 500 mg/kg intravenous, ten animals

SMILES | Intraocular tension ([1]; 0 hr, 3.0% solution) | Intraocular tension ([1]; 1 hr, 3.0% solution) | Intraocular tension ([1]; 3 hr, 3.0% solution) | Intraocular tension ([1]; 5 hr, 3.0% solution) | Intraocular tension ([1]; 7 hr, 3.0% solution) | Intraocular tension ([1]; 9 hr, 3.0% solution) | effects of lowering intraocular tension (conclusion) [1] | mortality (ddy mice; [2]) | mortality (ddy mice; 1,000 mg/kg intravenous) | solubility in water (Solubility in water) | other results
O=[N+]([O-])OC1COC2C(O)COC12 (stereo not drawn) [2-ISMN, isosorbide-2-mononitrate] | 31.2 ± 0.6 | 29.0 ± 0.8 | 29.1 ± 0.9 | 25.1 ± 1.4 | 24.6 ± 1.4 | 21.8 ± 1.3 | remarkable, continuous effects of lowering intraocular tension | No animal died of the ten animals | No animal died of the ten animals | highly soluble in water | effect of lowering intraocular tension ([1]; dose of 3%): exhibits an effect of lowering intraocular tension; symptoms observed (ddy mice; 500 mg/kg and 1,000 mg/kg groups, intravenous): Slight ataxia
O=[N+]([O-])OC1COC2C(O)COC12 (stereo not drawn) [5-ISMN, isosorbide-5-mononitrate] | 30.8 ± 0.8 | 20.3 ± 0.9 | 16.4 ± 0.5 | 15.7 ± 0.5 | 16.2 ± 1.8 | 16.2 ± 2.2 | remarkable, continuous effects of lowering intraocular tension | No animal died of the ten animals | no animal died | highly soluble in water | Intraocular tension ([1]; 0 hr, 0.3% solution): 30.5 ± 0.8; Intraocular tension ([1]; 0 hr, 1.0% solution): 30.2 ± 0.5; Intraocular tension ([1]; 1 hr, 0.3% solution): 21.5 ± 0.5; Intraocular tension ([1]; 1 hr, 1.0% solution): 22.0 ± 1.9; Intraocular tension ([1]; 3 hr, 0.3% solution): 20.1 ± 0.9; Intraocular tension ([1]; 3 hr, 1.0% solution): 19.1 ± 0.6; Intraocular tension ([1]; 5 hr, 0.3% solution): 19.8 ± 1.2; Intraocular tension ([1]; 5 hr, 1.0% solution): 18.6 ± 0.9; Intraocular tension ([1]; 7 hr, 0.3% solution): 20.5 ± 0.7; Intraocular tension ([1]; 7 hr, 1.0% solution): 18.5 ± 1.0; Intraocular tension ([1]; 9 hr, 0.3% solution): 19.6 ± 1.8; Intraocular tension ([1]; 9 hr, 1.0% solution): 19.8 ± 1.3; dose dependence of effect of lowering intraocular tension ([1]; dose of 0.3 to 3%): would depend on the dose; duration of effect of lowering intraocular tension ([1]; dose of 0.3 to 3%): at least nine; effect of lowering intraocular tension ([1]; dose of 0.3 to 3%): remarkable effect of lowering intraocular tension; symptoms observed (ddy mice; 500 mg/kg intravenous): Slight ataxia and restlessness; time to disappearance of symptoms (ataxia and restlessness) (ddy mice; 500 mg/kg intravenous): ≤ 30 min

— US4590207A, “Therapeutic and/or preventive ophthalmic solution for intraocular hypertension and glaucoma” (Eisai Co., Ltd., priority 1984, dated 1986)
